Test results: article PMC5744864, “Indole and Benzimidazole Bichalcophenes: Synthesis, DNA Binding and Antiparasitic Activity” (European Journal of Medicinal Chemistry, 2018)
pIC50: −log10 of the molar value. Counter-ions that a name gives are not always drawn. Like-named read-outs stand apart in the source and are kept apart here.

What was measured:
poly(dA-dT)n = assay: Thermal melting (ΔTm) of poly(dA-dT) DNA; format: binding; details: ratio 0.3 mol compound per mole of DNA; CAC 10 buffer pH 7.0
Protocol: Thermal melting experiments were performed with a Cary 300 spectrophotometer. Cuvettes were mounted in a thermal block where the solution temperatures were mesaured with a thermistor in the reference cuvette. Temperatures were maintained under computer control and increased at 0.5 °C/min. The experiments were performed in 1 cm path length quartz cuvettes in CAC 10 buffer (cacodylic acid 10 mM, EDTA 1 mM, NaCl 100 mM with NaOH added to give pH = 7.0). Poly (dA-dT) DNA concentrations were determined by measuring its absorbance at 260 nm. A ratio of 0.3 mol compound per mole of DNA was used for the complex and DNA alone was used as control. ΔTm values were determined from the peak of first derivative curves (dA/dT).

[1] = test system: P. f. (Plasmodium falciparum) strain K1; assay: In vitro viability assay, chloroquine resistant P. f. strain K1; format: cell-based; details: for pIC50: Plasmodium falciparum; for SI/P.f, Selectivity Index IC50 (L6)/IC50 (P.f.): ratio L6 versus P. f. K1
Protocol: (§1) The in vitro viability assays were with the T. b. r. strain STIB 900 and the chloroquine resistant P. f. strain K1. The efficacy studies were with the STIB900 acute mouse model for T. b. r. infections. Dosage was 4 × 5 mg/kg i.p. performed as previously described in detail. Cytotoxicity was evaluated in L6 rat myoblast cells as previously reported in detail.

[2] = Cytotoxicity in L6 rat myoblast cells; format: cell-based; details: cultured L6 rat myoblast cells; read-out: Cytotox. IC50 (L6)
Protocol: as §1

[3] = test system: T. b. r. (Trypanosoma brucei rhodesiense) STIB900; assay: In vitro viability assay, T. b. r. strain STIB900; format: cell-based; details: for pIC50: Trypanosoma brucei, read-out: T. b. r. IC50; for SI/T. b. r., Selectivity Index IC50 (L6)/IC50 (T b.r.): ratio L6 versus T. b. r. STIB900
Protocol: as §1

[4] = test system: T. b. rhodesiense (STIB900) infected mice; assay: STIB900 acute mouse model for T. b. r. infections; format: in vivo; details: 4 × 5 mg/kg i.p.; for In vivo (cures), cured/infected mice: T. b. rhodesiense (STIB900) infected mice; for In vivo cure of infected mice (in words): T. b. rhodesiense infected mice
Protocol: The excellent in vitro activity and selectivity of the indole bichalcophenes diamidines (4a-d) encouraged us to test them in vivo in the rigorous T. b. r. STIB900 mouse model (Table 1) for the acute hemolymphatic stage of the African trypanosomiasis. The dosage applied was low with a daily intraperitoneal (i.p.) dose of 5 mg/kg compound for four consecutive days.
as §1

Poly(dA).Poly(dT) = assay: Circular dichroism titration with Poly(dA).Poly(dT); format: binding; details: 20 μM Poly(dA).Poly(dT), 10 mM MES, 100 mM NaCl, 1 mM EDTA, 25 °C
Protocol: Fig. 2 Circular dichroism spectra of the titration of representative compounds, (4a, 4d, 8a, 8b, 8c) with a 20 μM Poly(dA).Poly(dT) sequence in the buffer (10 mM MES, 100 mM NaCl, 1 mM EDTA, at pH, 7.4) at 25 °C.
CD spectra were collected employing a Jasco J-810 spectrometer at 25 °C using different ratios of compound to DNA at 25 °C in MES 10 buffer (10 mM MES, 100 mM NaCl, I mM EDTA).First, a DNA solution in a 1-cm quartz cuvette was scanned over the desired wavelength range. Tested compounds at increasing ratios, were titrated into the same cuvette and the complexes rescanned under the same conditions.

[5] = test system: T. b. rhodesiense (STIB900) infected mice; design: method as in PMID 23959303; details: 5 mg/kg i.p. daily for four consecutive days; cited from earlier work
[6] = strain STIB900, average of duplicate determinations

N=C(N)c1ccc2cc(-c3ccc(-c4ccc(C(=N)N)o4)o3)[nH]c2c1 (as salt: hydrochloride) [Compound 4a, 2-(5′-Amidino-2,2′-bifuran-5-yl)-1H-indole-6-amidine hydrochloride salt]
melting point: > 300 °C

N=C(N)c1ccc2cc(-c3ccc(-c4ccc(C(=N)N)s4)o3)[nH]c2c1 (as salt: hydrochloride) [Compound 4b, 2-(5-(5-Amidinothiophen-2-yl)furan-2-yl)-1H-indole-6-amidine hydrochloride salt]
melting point: > 300 °C

N=C(N)c1ccc2cc(-c3ccc(-c4ccc(C(=N)N)o4)s3)[nH]c2c1 (as salt: hydrochloride) [Compound 4c, 2-(5-(5-Amidinofuran-2-yl)thiophen-2-yl)-1H-indole-6-amidine hydrochloride salt]
melting point: > 300 °C

N=C(N)c1ccc2cc(-c3ccc(-c4ccc(C(=N)N)s4)s3)[nH]c2c1 (as salt: hydrochloride) [Compound 4d, 2-(5′-Amidino-2,2′-bithiophen-5-yl)-1H-indole-6-amidine hydrochloride salt]
melting point: > 300 °C

N=C(N)c1ccc2nc(-c3ccc(-c4ccc(C(=N)N)o4)o3)[nH]c2c1 (as salt: hydrochloride) [Compound 8a, 2-(5′-Amidino-2,2′-bifuran-5-yl)-1H-benzimidazole-5(6)-amidine hydrochloride salt]
melting point: > 300 °C

N=C(N)c1ccc2nc(-c3ccc(-c4ccc(C(=N)N)s4)o3)[nH]c2c1 (as salt: hydrochloride) [Compound 8b, 2-(5-(5-Amidinothiophen-2-yl)furan-2-yl)-1H-benzimidazole-5(6)-amidine hydrochloride salt]
melting point: > 300 °C

N=C(N)c1ccc2nc(-c3ccc(-c4ccc(C(=N)N)s4)s3)[nH]c2c1 (as salt: hydrochloride) [Compound 8c, 2-(5′-Amidino-2,2′-bithiophen-5-yl)-1H-benzimidazole-5(6)-amidine hydrochloride salt]
melting point: > 300 °C

N=C(N)c1ccc2cc(-c3ccc(-c4ccc(C(=N)N)o4)o3)[nH]c2c1 [Compound 4a, 2-(5′-Amidino-2,2′-bifuran-5-yl)-1H-indole-6-amidine hydrochloride salt]
ΔTm, thermal melting increase of poly(dA-dT)n (poly(dA-dT)n): 28 ^oC | pIC50 ([1]; K1, read-out: P.f. IC50): 8.54 | pIC50 [2]: 4.78 | pIC50 [3]: 7.82 | SI/T. b. r., Selectivity Index IC50 (L6)/IC50 (T b.r.) [3]: 1100 | In vivo (cures), cured/infected mice [4]: 0/4 | Induced CD signal on binding (minor groove binding) (Poly(dA).Poly(dT)): very strong induced CD signals

N=C(N)c1ccc2cc(-c3ccc(-c4ccc(C(=N)N)s4)o3)[nH]c2c1 [Compound 4b, 2-(5-(5-Amidinothiophen-2-yl)furan-2-yl)-1H-indole-6-amidine hydrochloride salt]
ΔTm, thermal melting increase of poly(dA-dT)n (poly(dA-dT)n): >30 ^oC | pIC50 ([1]; K1, read-out: P.f. IC50): 8.14 | SI/P.f, Selectivity Index IC50 (L6)/IC50 (P.f.) [1]: 2150 | pIC50 [2]: 4.80 | pIC50 [3]: 7.82 | SI/T. b. r., Selectivity Index IC50 (L6)/IC50 (T b.r.) [3]: 1046 | In vivo (cures), cured/infected mice [4]: 0/4

N=C(N)c1ccc2cc(-c3ccc(-c4ccc(C(=N)N)o4)s3)[nH]c2c1 [Compound 4c, 2-(5-(5-Amidinofuran-2-yl)thiophen-2-yl)-1H-indole-6-amidine hydrochloride salt]
ΔTm, thermal melting increase of poly(dA-dT)n (poly(dA-dT)n): 28 ^oC | pIC50 ([1]; K1, read-out: P.f. IC50): 8.17 | SI/P.f, Selectivity Index IC50 (L6)/IC50 (P.f.) [1]: 2588 | pIC50 [2]: 4.75 | pIC50 [3]: 8.40 | SI/T. b. r., Selectivity Index IC50 (L6)/IC50 (T b.r.) [3]: 4400 | Sterile cures in mice infected with T. b. r. ([4]; STIB900 mouse model): 100% | In vivo (cures), cured/infected mice [4]: 4/4 | In vivo cure of infected mice (in words) [4]: curing all T. b. r. infected mice

N=C(N)c1ccc2cc(-c3ccc(-c4ccc(C(=N)N)s4)s3)[nH]c2c1 [Compound 4d, 2-(5′-Amidino-2,2′-bithiophen-5-yl)-1H-indole-6-amidine hydrochloride salt]
ΔTm, thermal melting increase of poly(dA-dT)n (poly(dA-dT)n): >30 ^oC | pIC50 ([1]; K1, read-out: P.f. IC50): 8.17 | SI/P.f, Selectivity Index IC50 (L6)/IC50 (P.f.) [1]: 1705 | pIC50 [2]: 4.94 | pIC50 [3]: 8.70 | SI/T. b. r., Selectivity Index IC50 (L6)/IC50 (T b.r.) [3]: 5800 | In vivo (cures), cured/infected mice [4]: 0/4 | Induced CD signal on binding (minor groove binding) (Poly(dA).Poly(dT)): very strong induced CD signals

N#Cc1ccc2nc(-c3ccc(-c4ccc(C#N)s4)s3)[nH]c2c1 [Compound 7c, 2-(5′-Cyano-2,2′-bithiophen-5-yl)-1H-benzimidazole-5(6)-carbonitrile]
melting point: > 300 °C | In vivo cure of infected mice (in words) [4]: cured all mice

N=C(N)c1ccc2nc(-c3ccc(-c4ccc(C(=N)N)o4)o3)[nH]c2c1 [Compound 8a, 2-(5′-Amidino-2,2′-bifuran-5-yl)-1H-benzimidazole-5(6)-amidine hydrochloride salt]
ΔTm, thermal melting increase of poly(dA-dT)n (poly(dA-dT)n): 29 ^oC | pIC50 ([1]; chloroquine resistant strain K1, average of duplicate determinations, read-out: P.f. IC50): 7.04 | SI/P.f, Selectivity Index IC50 (L6)/IC50 (P.f.) [1]: 454 | pIC50 [2]: 4.38 | pIC50 [3, 6]: 6.99 | SI/T. b. r., Selectivity Index IC50 (L6)/IC50 (T b.r.) [3]: 409 | Induced CD signal on binding (minor groove binding) (Poly(dA).Poly(dT)): very strong induced CD signals

N=C(N)c1ccc2nc(-c3ccc(-c4ccc(C(=N)N)s4)o3)[nH]c2c1 [Compound 8b, 2-(5-(5-Amidinothiophen-2-yl)furan-2-yl)-1H-benzimidazole-5(6)-amidine hydrochloride salt]
ΔTm, thermal melting increase of poly(dA-dT)n (poly(dA-dT)n): 27 ^oC | pIC50 [2]: 4.82 | pIC50 [3, 6]: 7.19 | SI/T. b. r., Selectivity Index IC50 (L6)/IC50 (T b.r.) [3]: 234 | Induced CD signal on binding (minor groove binding) (Poly(dA).Poly(dT)): very strong induced CD signals

N=C(N)c1ccc2nc(-c3ccc(-c4ccc(C(=N)N)s4)s3)[nH]c2c1 [Compound 8c, 2-(5′-Amidino-2,2′-bithiophen-5-yl)-1H-benzimidazole-5(6)-amidine hydrochloride salt]
ΔTm, thermal melting increase of poly(dA-dT)n (poly(dA-dT)n): >30 ^oC | pIC50 [2]: 4.58 | pIC50 [3, 6]: 7.60 | SI/T. b. r., Selectivity Index IC50 (L6)/IC50 (T b.r.) [3]: 1048 | Induced CD signal on binding (minor groove binding) (Poly(dA).Poly(dT)): very strong induced CD signals

N=C(N)c1ccc(OCCCCCOc2ccc(C(=N)N)cc2)cc1 [pentamidine, Pentamidine]
In vivo (cures), cured/infected mice [5]: 1/4
